#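 GI50: concentration for 50% inhibition of growth. TGI denotes the concentration required for complete inhibition of growth.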
# How the values were obtained:
# Assay in all cases: DTP human tumour cell line panel, 384-well format
# 786-0 renal = tested on: 786-0 renal
# A498 renal = tested on: A498 renal
# A549 NSCLC = tested on: A549 NSCLC
# ACHN renal = tested on: ACHN renal
# BT-549 breast = tested on: BT-549 breast
# CAKI-1 renal = tested on: CAKI-1 renal
# COLO 205 colon = tested on: COLO 205 colon
# DU-145 prostate = tested on: DU-145 prostate
# EKVX NSCLC = tested on: EKVX NSCLC
# HCC-2998 colon = tested on: HCC-2998 colon
# HCT-116 colon = tested on: HCT-116 colon
# HCT-15 colon = tested on: HCT-15 colon
# HL-60(TB) leukemia = tested on: HL-60(TB) leukemia
# HOP-62 NSCLC = tested on: HOP-62 NSCLC
# HOP-92 NSCLC = tested on: HOP-92 NSCLC
# HS 578T breast = tested on: HS 578T breast
# HT29 colon = tested on: HT29 colon
# IGROV1 ovarian = tested on: IGROV1 ovarian
# KM12 colon = tested on: KM12 colon
# LOX IMVI melanoma = tested on: LOX IMVI melanoma
# M14 melanoma = tested on: M14 melanoma
# MALME-3M melanoma = tested on: MALME-3M melanoma
# MCF7 breast = tested on: MCF7 breast
# MDA-MB-231 breast = tested on: MDA-MB-231 breast
# MDA-MB-435 melanoma = tested on: MDA-MB-435 melanoma
# MDA-MB-468 breast = tested on: MDA-MB-468 breast
# MOLT-4 leukemia = tested on: MOLT-4 leukemia
# NCI-H226 lung = tested on: NCI-H226 lung
# NCI-H23 lung = tested on: NCI-H23 lung
# NCI-H322M lung = tested on: NCI-H322M lung
# NCI-H460 NSCLC = tested on: NCI-H460 NSCLC
# NCI-H522 lung = tested on: NCI-H522 lung
# NCI/ADR-RES ovarian = tested on: NCI/ADR-RES ovarian
# OVCAR-3 ovarian = tested on: OVCAR-3 ovarian
# OVCAR-4 ovarian = tested on: OVCAR-4 ovarian
# OVCAR-5 ovarian = tested on: OVCAR-5 ovarian
# OVCAR-8 ovarian = tested on: OVCAR-8 ovarian
# PC-3 prostate = tested on: PC-3 prostate
# RPMI-8226 leukemia = tested on: RPMI-8226 leukemia
# RXF 393 renal = tested on: RXF 393 renal
# SF-268 CNS = tested on: SF-268 CNS
# SF-295 CNS = tested on: SF-295 CNS
# SF-539 CNS = tested on: SF-539 CNS
# SK-MEL-28 melanoma = tested on: SK-MEL-28 melanoma
# SK-MEL-5 melanoma = tested on: SK-MEL-5 melanoma
# SK-OV-3 ovarian = tested on: SK-OV-3 ovarian
# SN12C renal = tested on: SN12C renal
# SNB-19 CNS = tested on: SNB-19 CNS
# SNB-75 CNS = tested on: SNB-75 CNS
# SR leukemia = tested on: SR leukemia
# SW-620 colon = tested on: SW-620 colon
# T-47D breast = tested on: T-47D breast
# TK-10 renal = tested on: TK-10 renal
# U251 glioblastoma = tested on: U251 glioblastoma
# UACC-257 melanoma = tested on: UACC-257 melanoma
# UACC-62 melanoma = tested on: UACC-62 melanoma
# UO-31 renal = tested on: UO-31 renal
smiles,measurement,setting,value
COC(=O)C[C@](O)(CCCC(C)(C)O)C(=O)O[C@@H]1C(OC)=C[C@]23CCCN2CCc2cc4c(cc2[C@H]13)OCO4,GI50,786-0 renal,26 nM
same,TGI,786-0 renal,147 nM
same,GI50,A498 renal,19 nM
same,TGI,A498 renal,44.9 nM
same,GI50,A549 NSCLC,18 nM
same,TGI,A549 NSCLC,115 nM
same,GI50,ACHN renal,43.2 nM
same,TGI,ACHN renal,304 nM
same,GI50,BT-549 breast,17.1 nM
same,TGI,BT-549 breast,34.8 nM
same,GI50,CAKI-1 renal,42.4 nM
same,TGI,CAKI-1 renal,266 nM
same,GI50,COLO 205 colon,25.9 nM
same,TGI,COLO 205 colon,120 nM
same,GI50,DU-145 prostate,29.9 nM
same,TGI,DU-145 prostate,85 nM
same,GI50,EKVX NSCLC,36.5 nM
same,TGI,EKVX NSCLC,201 nM
same,GI50,HCC-2998 colon,< 10 nM
same,TGI,HCC-2998 colon,25.3 nM
same,GI50,HCT-116 colon,< 10 nM
same,TGI,HCT-116 colon,88.7 nM
same,GI50,HCT-15 colon,47.7 nM
same,TGI,HCT-15 colon,233 nM
same,GI50,HL-60(TB) leukemia,< 10 nM
same,TGI,HL-60(TB) leukemia,< 10 nM
same,GI50,HOP-62 NSCLC,26.3 nM
same,TGI,HOP-62 NSCLC,134 nM
same,GI50,HOP-92 NSCLC,37.9 nM
same,TGI,HOP-92 NSCLC,102 nM
same,GI50,HS 578T breast,18 nM
same,TGI,HS 578T breast,34.6 nM
same,GI50,HT29 colon,21.4 nM
same,TGI,HT29 colon,66.3 nM
same,GI50,IGROV1 ovarian,24 nM
same,TGI,IGROV1 ovarian,115 nM
same,GI50,KM12 colon,27.5 nM
same,TGI,KM12 colon,183 nM
same,GI50,LOX IMVI melanoma,< 10 nM
same,TGI,LOX IMVI melanoma,21.9 nM
same,GI50,M14 melanoma,20.3 nM
same,TGI,M14 melanoma,41.6 nM
same,GI50,MALME-3M melanoma,15 nM
same,TGI,MALME-3M melanoma,33.2 nM
same,GI50,MCF7 breast,< 10 nM
same,TGI,MCF7 breast,1450 nM
same,GI50,MDA-MB-231 breast,31.6 nM
same,TGI,MDA-MB-231 breast,105 nM
same,GI50,MDA-MB-435 melanoma,43.4 nM
same,TGI,MDA-MB-435 melanoma,130 nM
same,GI50,MDA-MB-468 breast,< 10 nM
same,TGI,MDA-MB-468 breast,19.9 nM
same,GI50,MOLT-4 leukemia,< 10 nM
same,TGI,MOLT-4 leukemia,< 10 nM
same,GI50,NCI-H226 lung,11.9 nM
same,TGI,NCI-H226 lung,38 nM
same,GI50,NCI-H23 lung,17.6 nM
same,TGI,NCI-H23 lung,36.9 nM
same,GI50,NCI-H322M lung,84.4 nM
same,TGI,NCI-H322M lung,287 nM
same,GI50,NCI-H460 NSCLC,< 10 nM
same,TGI,NCI-H460 NSCLC,17 nM
same,GI50,NCI-H522 lung,< 10 nM
same,TGI,NCI-H522 lung,17.3 nM
same,GI50,NCI/ADR-RES ovarian,1780 nM
same,TGI,NCI/ADR-RES ovarian,7740 nM
same,GI50,OVCAR-3 ovarian,13.8 nM
same,TGI,OVCAR-3 ovarian,41.1 nM
same,GI50,OVCAR-4 ovarian,26.5 nM
same,TGI,OVCAR-4 ovarian,72.1 nM
same,GI50,OVCAR-5 ovarian,48.9 nM
same,TGI,OVCAR-5 ovarian,806 nM
same,GI50,OVCAR-8 ovarian,25.9 nM
same,TGI,OVCAR-8 ovarian,66.8 nM
same,GI50,PC-3 prostate,26 nM
same,TGI,PC-3 prostate,139 nM
same,GI50,RPMI-8226 leukemia,< 10 nM
same,TGI,RPMI-8226 leukemia,15.5 nM
same,GI50,RXF 393 renal,17.4 nM
same,TGI,RXF 393 renal,47.9 nM
same,GI50,SF-268 CNS,31.1 nM
same,TGI,SF-268 CNS,85.2 nM
same,GI50,SF-295 CNS,26 nM
same,TGI,SF-295 CNS,55.9 nM
same,GI50,SF-539 CNS,17.2 nM
same,TGI,SF-539 CNS,33.3 nM
same,GI50,SK-MEL-28 melanoma,25.7 nM
same,TGI,SK-MEL-28 melanoma,62.5 nM
same,GI50,SK-MEL-5 melanoma,13 nM
same,TGI,SK-MEL-5 melanoma,36.6 nM
same,GI50,SK-OV-3 ovarian,26 nM
same,TGI,SK-OV-3 ovarian,172 nM
same,GI50,SN12C renal,40.4 nM
same,TGI,SN12C renal,267 nM
same,GI50,SNB-19 CNS,29.8 nM
same,TGI,SNB-19 CNS,> 100000 nM
same,GI50,SNB-75 CNS,32.1 nM
same,TGI,SNB-75 CNS,78.9 nM
same,GI50,SR leukemia,< 10 nM
same,TGI,SR leukemia,< 10 nM
same,GI50,SW-620 colon,30.4 nM
same,TGI,SW-620 colon,183 nM
same,GI50,T-47D breast,27.5 nM
same,TGI,T-47D breast,187 nM
same,GI50,TK-10 renal,48.7 nM
same,TGI,TK-10 renal,894 nM
same,GI50,U251 glioblastoma,21.4 nM
same,TGI,U251 glioblastoma,66.9 nM
same,GI50,UACC-257 melanoma,26.5 nM
same,TGI,UACC-257 melanoma,65.6 nM
same,GI50,UACC-62 melanoma,31.8 nM
same,TGI,UACC-62 melanoma,107 nM
same,GI50,UO-31 renal,295 nM
same,TGI,UO-31 renal,1090 nM

# Source: PubChem BioAssay (NCI)
